pKd: −log10 of the molar value. Residues, ends and D or L forms follow the SMILES beside them.
Key:
[1] = molecular target: PIK3R2-N SH2 domain (Homo sapiens, UniProt O00459); assay: FP saturation binding assay
[2] = molecular target: T1, PIK3R1-N SH2 domain (Homo sapiens, UniProt P27986); assay: biochemical; assay type: binding; details: protein PIK3R1-N; FP, high-confidence ErbB interactions; mean of replicate hits
T1 construct: thioredoxin; made in house; host or cells: E. coli BL21(DE3)pLysS
T1 sequence (P27986 333-428 limits assumed): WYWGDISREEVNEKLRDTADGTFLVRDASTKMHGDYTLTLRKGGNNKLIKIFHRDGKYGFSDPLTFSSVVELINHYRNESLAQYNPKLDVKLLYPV

[3] = molecular target: T2, PIK3R3-NC tandem SH2 domains (Homo sapiens, UniProt Q92569); assay: FP saturation binding assay; details: high-confidence ErbB interactions
T2 construct: the tandem protein was included in our analysis with all internal amino acids linking the domains; 6X His; thioredoxin; made in house; host or cells: E. coli BL21(DE3)pLysS
How it was run: (§1)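 Rhodamine-labeled phosphopeptides (10 nM final) titrated with SH2 domain protein (0.002–10 µM, 12 points) in 20 mM HEPES, 100 mM KCl, 0.1% Tween-20, 5 mM DTT, pH 7.8; 20 min, room temperature, dark. FP read at 530/555 nm; KD fitted by nonlinear regression after thioredoxin background correction and outlier removal.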

[4] = molecular target: T3, PIK3R1-NC tandem SH2 domains (Homo sapiens, UniProt P27986); assay: FP saturation binding assay; details: protein PIK3R1-NC; FP, high-confidence ErbB interactions; mean of replicate hits
T3 construct: the tandem protein was included in our analysis with all internal amino acids linking the domains; 6X His; thioredoxin; made in house; host or cells: E. coli BL21(DE3)pLysS
T3 sequence (P27986 333-718 limits assumed): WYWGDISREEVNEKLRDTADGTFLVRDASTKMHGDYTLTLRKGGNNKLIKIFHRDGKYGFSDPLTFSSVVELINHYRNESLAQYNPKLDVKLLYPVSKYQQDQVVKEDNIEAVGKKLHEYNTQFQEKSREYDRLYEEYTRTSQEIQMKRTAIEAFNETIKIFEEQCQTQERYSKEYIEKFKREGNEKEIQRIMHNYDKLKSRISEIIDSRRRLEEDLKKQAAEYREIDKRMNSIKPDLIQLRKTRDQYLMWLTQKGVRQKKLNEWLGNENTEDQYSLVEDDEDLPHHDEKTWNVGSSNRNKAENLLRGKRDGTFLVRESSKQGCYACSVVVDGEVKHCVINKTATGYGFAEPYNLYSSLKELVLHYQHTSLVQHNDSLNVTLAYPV
How it was run: as §1

[5] = molecular target: T4, PIK3R1-C SH2 domain (Homo sapiens, UniProt P27986); assay: FP saturation binding assay; details: protein PIK3R1-C, high-confidence ErbB interactions, mean of replicate hits
T4 construct: 6X His; thioredoxin; made in house; host or cells: E. coli BL21(DE3)pLysS
T4 sequence (P27986 624-718 limits assumed): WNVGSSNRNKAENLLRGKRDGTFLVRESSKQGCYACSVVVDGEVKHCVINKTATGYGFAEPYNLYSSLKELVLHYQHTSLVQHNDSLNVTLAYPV
How it was run: as §1

[6] = molecular target: T5, RASA1-N SH2 domain (Homo sapiens, UniProt P20936); assay: FP saturation binding assay
T5 sequence (P20936 181-272 limits assumed): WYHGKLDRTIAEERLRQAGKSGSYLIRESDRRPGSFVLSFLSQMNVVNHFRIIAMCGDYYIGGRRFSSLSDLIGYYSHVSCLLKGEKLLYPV

[7] = molecular target: T6, PTK6 SH2 domain (Homo sapiens, UniProt Q13882); assay: FP saturation binding assay; details: high-confidence ErbB interactions
T6 construct: from the PTK6 SH2 domain; 6X His; thioredoxin; made in house; host or cells: E. coli BL21(DE3)pLysS
T6 sequence (Q13882 78-170 limits assumed): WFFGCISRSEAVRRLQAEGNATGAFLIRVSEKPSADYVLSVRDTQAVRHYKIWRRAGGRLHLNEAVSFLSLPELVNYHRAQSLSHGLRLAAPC
How it was run: as §1

[8] = molecular target: T7, PIK3R3-N SH2 domain (Homo sapiens, UniProt Q92569); assay: FP saturation binding assay; details: high-confidence ErbB interactions
T7 construct: 6X His; thioredoxin; made in house; host or cells: E. coli BL21(DE3)pLysS
How it was run: as §1

[9] = molecular target: T8, YES1 SH2 domain (Homo sapiens, UniProt P07947); assay: FP saturation binding assay; details: protein YES1; high-confidence ErbB interactions; mean of replicate hits
T8 construct: 6X His; thioredoxin; made in house; host or cells: BL21(DE3)pLysS E. coli
T8 sequence (P07947 158-255 limits assumed): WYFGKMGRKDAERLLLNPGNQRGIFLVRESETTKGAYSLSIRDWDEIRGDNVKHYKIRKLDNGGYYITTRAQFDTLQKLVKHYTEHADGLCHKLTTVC
How it was run: as §1

[10] = molecular target: PIK3R2-NC tandem SH2 domains (Homo sapiens, UniProt O00459); assay: FP saturation binding assay
Sequence of PIK3R2-NC tandem SH2 domains (O00459 330-716 limits assumed): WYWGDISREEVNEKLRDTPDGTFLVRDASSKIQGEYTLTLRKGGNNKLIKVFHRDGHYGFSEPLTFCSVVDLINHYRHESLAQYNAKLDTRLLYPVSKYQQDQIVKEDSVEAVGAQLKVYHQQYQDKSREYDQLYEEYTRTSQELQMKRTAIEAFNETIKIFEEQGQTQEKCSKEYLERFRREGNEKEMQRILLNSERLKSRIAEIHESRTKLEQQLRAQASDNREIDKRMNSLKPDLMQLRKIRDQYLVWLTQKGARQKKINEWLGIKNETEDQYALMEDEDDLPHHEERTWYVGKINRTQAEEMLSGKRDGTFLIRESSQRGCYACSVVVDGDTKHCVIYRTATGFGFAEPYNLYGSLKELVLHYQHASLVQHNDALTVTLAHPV

[11] = molecular target: T9, PLCG1-C SH2 domain (Homo sapiens, UniProt P19174); assay: biochemical; assay type: binding; details: protein PLCG1-C; high-confidence ErbB interactions; mean of replicate hits
T9 construct: The 6X His-tagged SH2 domain proteins used in the assay, PLCG1-C, SHC4, VAV2; thioredoxin; made in house; host or cells: E. coli BL21(DE3)pLysS
T9 sequence (P19174 668-756 limits assumed): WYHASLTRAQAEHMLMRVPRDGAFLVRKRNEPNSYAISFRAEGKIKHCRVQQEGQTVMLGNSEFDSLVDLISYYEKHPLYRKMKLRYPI

[12] = molecular target: GRB7 SH2 domain (Homo sapiens, UniProt Q14451); assay: FP saturation binding assay; details: Mean KD (μM), protein GRB7; FP, high-confidence ErbB interactions; mean of replicate hits
Sequence of GRB7 SH2 domain (Q14451 431-527 limits assumed): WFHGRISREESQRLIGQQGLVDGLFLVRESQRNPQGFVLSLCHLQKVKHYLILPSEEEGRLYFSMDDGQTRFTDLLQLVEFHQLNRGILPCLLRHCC

[13] = molecular target: T10, RASA1-NC tandem SH2 domains (Homo sapiens, UniProt P20936); assay: FP saturation binding assay; details: Protein RASA1-NC; FP saturation binding, high-confidence ErbB interactions; mean over replicate hits
T10 construct: the tandem protein was included in our analysis with all internal amino acids linking the domains; 6X His; thioredoxin; made in house; host or cells: E. coli BL21(DE3)pLysS
T10 sequence (P20936 181-441 limits assumed): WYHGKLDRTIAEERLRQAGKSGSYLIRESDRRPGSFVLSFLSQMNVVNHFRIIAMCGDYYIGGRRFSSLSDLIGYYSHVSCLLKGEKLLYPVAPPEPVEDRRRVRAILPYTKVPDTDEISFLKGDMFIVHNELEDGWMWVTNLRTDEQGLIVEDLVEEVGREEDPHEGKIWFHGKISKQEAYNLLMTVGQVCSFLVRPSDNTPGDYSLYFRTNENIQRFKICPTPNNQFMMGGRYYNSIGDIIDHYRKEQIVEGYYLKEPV
How it was run: as §1

[14] = molecular target: T11, PIK3R3-C SH2 domain (Homo sapiens, UniProt Q92569); assay: biochemical; assay type: binding; details: protein PIK3R3-C; FP, high-confidence ErbB interactions; mean of replicate hits
T11 construct: thioredoxin; made in house; host or cells: E. coli BL21(DE3)pLysS

[15] = molecular target: T12, TNS1 SH2 domain (Homo sapiens, UniProt Q9HBL0); assay: FP saturation binding assay; details: Tensin family SH2 domains
T12 sequence (Q9HBL0 1567-1676 limits assumed): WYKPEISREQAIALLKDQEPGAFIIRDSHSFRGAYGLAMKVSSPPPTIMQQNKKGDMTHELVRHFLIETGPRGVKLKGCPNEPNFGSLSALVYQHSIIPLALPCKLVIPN

[16] = system: TENC1 SH2 domain; assay: FP saturation binding assay; details: Tensin family SH2 domains
[17] = molecular target: T13, TNS3 SH2 domain (Homo sapiens, UniProt Q68CZ2); assay: FP saturation binding assay; details: FP saturation assay; Tensin family SH2 domains
T13 sequence (Q68CZ2 1172-1282 limits assumed): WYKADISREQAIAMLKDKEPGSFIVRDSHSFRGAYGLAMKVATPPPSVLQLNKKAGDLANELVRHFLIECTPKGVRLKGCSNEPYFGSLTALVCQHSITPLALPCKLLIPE

[18] = molecular target: SH2 and PTB domains; details: protein SYK-N; ref Kaushansky et al. Mol Biosys 2008; cited from earlier work
Source text: Supplement pone.0044471.s022.xlsx, sheet "Most recent PM interactions" | column: Kd || Supplement pone.0044471.s022.xlsx, sheet "All original PM interactions" | column: Kd

[19] = protein PIK3R3-NC, FP, mean of replicate hits
[20] = protein PIK3R3-N, FP, mean of replicate hits

Sequence of PIK3R2-N SH2 domain (O00459 330-425 limits assumed): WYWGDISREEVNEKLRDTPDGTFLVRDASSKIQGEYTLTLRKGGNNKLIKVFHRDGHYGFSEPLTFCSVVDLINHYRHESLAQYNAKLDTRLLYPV

## CSCC[C@H](NC(=O)[C@@H]1CCCN1C(=O)[C@@H](NC(=O)[C@H](Cc1ccc(OP(=O)(O)O)cc1)NC(=O)[C@H](C)NC(=O)[C@@H]1CCCN1C(=O)[C@@H]1CCCN1C(=O)[C@@H]1CCCN1)[C@@H](C)O)C(=O)N[C@@H](CO)C(=O)NCC(=O)N[C@@H](CC(N)=O)C(=O)N[C@@H](CCC(N)=O)C(=O)N[C@@H](CC(=O)O)C(=O)O [ErbB4 1056 13-mer] (HELM PEPTIDE1{P.P.P.A.[O=C([C@H](Cc1ccc(OP(=O)(O)O)cc1)N[*:1])[*:2]].T.P.M.S.G.N.Q.D}$$$$V2.0)
[1]
  pKd: 5.53
[2]
  pKd: 5.59
[3]; [19]
  pKd: 6.64
[4]
  pKd: 6.68
[5]
  pKd: 6.80

## CC(C)C[C@H](NC(=O)[C@H](Cc1ccc(O)cc1)NC(=O)[C@H](CC(C)C)NC(=O)[C@@H]1CCCN1C(=O)[C@H](CCC(=O)O)NC(=O)[C@H](CC(N)=O)NC(=O)[C@@H](NC(=O)[C@H](Cc1ccc(OP(=O)(O)O)cc1)NC(=O)[C@H](CCC(=O)O)NC(=O)[C@H](CC(=O)O)NC(=O)[C@H](CCC(=O)O)NC(=O)[C@H](C)N)C(C)C)C(=O)N[C@@H](CC(=O)O)C(=O)O [ErbB4 1202 13-mer] (HELM PEPTIDE1{A.E.D.E.[O=C([C@H](Cc1ccc(OP(=O)(O)O)cc1)N[*:1])[*:2]].V.N.E.P.L.Y.L.D}$$$$V2.0)
[6]
  pKd: 5.84
[2]
  pKd: 5.87
[7]; protein PTK6, mean of replicate hits
  pKd: 5.92
[3]; [19]
  pKd: 5.54
[4]
  pKd: 5.81
[8]; [20]
  pKd: 5.73
[9]
  pKd: 5.79
[10]
  pKd: 5.30
[11]
  pKd: 5.81
[12]
  Kd: 2.06 µM

## CSCC[C@H](NC(=O)[C@@H](NC(=O)[C@H](Cc1ccc(OP(=O)(O)O)cc1)NC(=O)[C@H](C)NC(=O)[C@H](CCC(=O)O)NC(=O)[C@H](CC(=O)O)NC(=O)[C@@H](N)CC(C)C)C(C)C)C(=O)N[C@@H](C)C(=O)N[C@@H](CO)C(=O)N[C@H](C(=O)N[C@@H](CC(=O)O)C(=O)N[C@@H](CC(N)=O)C(=O)N[C@@H](CC(=O)O)C(=O)O)C(C)C [ErbB1 764 13-mer] (HELM PEPTIDE1{L.D.E.A.[O=C([C@H](Cc1ccc(OP(=O)(O)O)cc1)N[*:1])[*:2]].V.M.A.S.V.D.N.D}$$$$V2.0)
[6]
  pKd: 5.01
[1]
  pKd: 5.63
[3]; Protein PIK3R3-NC, FP saturation binding, mean over replicate hits
  pKd: 5.72
[10]
  pKd: 5.51

## CC[C@H](C)[C@H](NC(=O)[C@H](CC(C)C)NC(=O)[C@H](Cc1ccc(OP(=O)(O)O)cc1)NC(=O)[C@H](CCC(=O)O)NC(=O)[C@H](CC(=O)O)NC(=O)[C@H](C)NC(=O)[C@@H](N)CC(=O)O)C(=O)N1CCC[C@H]1C(=O)N[C@@H](CCC(N)=O)C(=O)N[C@@H](CCC(N)=O)C(=O)NCC(=O)N[C@@H](Cc1ccccc1)C(=O)N[C@@H](CC(=O)O)C(=O)O [ErbB1 1016 13-mer]
[6]
  pKd: 5.78
[1]
  pKd: 5.61
[7]; Protein PTK6, FP saturation binding, mean over replicate hits
  pKd: 5.52
[13]
  pKd: 5.96
[8]; Protein PIK3R3-N, FP saturation binding, mean over replicate hits
  pKd: 5.49
[10]
  pKd: 5.61

## CSCC[C@H](NC(=O)[C@H](C)NC(=O)[C@H](C)NC(=O)[C@H](Cc1ccc(OP(=O)(O)O)cc1)NC(=O)[C@H](CC(=O)O)NC(=O)CNC(=O)CNC(=O)[C@@H]1CCCN1)C(=O)NCC(=O)N[C@@H](C)C(=O)N[C@@H](CS)C(=O)N1CCC[C@H]1C(=O)N[C@@H](CC(=O)O)C(=O)O [ErbB3 1276 13-mer] (HELM PEPTIDE1{P.G.G.D.[O=C([C@H](Cc1ccc(OP(=O)(O)O)cc1)N[*:1])[*:2]].A.A.M.G.A.C.P.D}$$$$V2.0)
[14]
  pKd: 5.01
[2]
  pKd: 5.22
[3]; [19]
  pKd: 5.43
[5]
  pKd: 5.64
[8]; [20]
  pKd: 5.61

## CLLDpYVREHKDNd [ErbB1 pY801, N-terminally rhodamine-labeled 13-mer phosphopeptide]
[15]
  affinity of recruitment of TNS1: relatively high affinity
[16]
  affinity of recruitment of TENC1: relatively high affinity
[17]
  affinity of recruitment of TNS3: relatively high affinity
[18]
  pKd: 6.25

## LDEApYVMASVDNd [ErbB1 pY764]
[15]
  affinity of recruitment of TNS1: relatively high affinity
[16]
  affinity of recruitment of TENC1: relatively high affinity
[17]
  affinity of recruitment of TNS3: relatively high affinity

## CSCC[C@H](NC(=O)[C@H](Cc1ccc(O)cc1)NC(=O)[C@H](CCC(=O)O)NC(=O)[C@H](Cc1ccc(OP(=O)(O)O)cc1)NC(=O)[C@H](CC(=O)O)NC(=O)[C@H](CCC(=O)O)NC(=O)[C@H](CC(=O)O)NC(=O)[C@@H]1CCCN1)C(=O)N[C@@H](CC(N)=O)C(=O)N[C@@H](CCCNC(=N)N)C(=O)N[C@@H](CCC(N)=O)C(=O)N[C@@H](CCCNC(=N)N)C(=O)N[C@@H](CC(=O)O)C(=O)O [ErbB3 1260 13-mer] (HELM PEPTIDE1{P.D.E.D.[O=C([C@H](Cc1ccc(OP(=O)(O)O)cc1)N[*:1])[*:2]].E.Y.M.N.R.Q.R.D}$$$$V2.0)
[2]
  pKd: 6.32
[5]
  pKd: 6.33
[12]
  Kd: 0.1 µM

From publication PMC3433420 (PLoS ONE, 2012)
